Measured values reported in patent US6677309B1, “Anti-cancer drug aldehyde conjugate drugs with enhanced cytotoxicity compounds, compositions and methods” (University Technology Corporation, priority 1997, dated 2004).

Tests used:
[1] = Stability in DMSO and DMSO/water, NMR or HPLC; assay type: physicochemical
Experimental: Crystalline dimeric formaldehyde conjugate of daunorubicin (2.8 mg, 2.6 μmol) was dissolved in 500 μL of DMSO-d6 (stored over 3 A molecular sieves) and analyzed by 400 MHz, ^1H NMR. […] Upon addition of 25 μL of D2O to the 500 μL DMSO-d6 sample, the dimeric formaldehyde conjugate of daunorubicin reacted over a 24 h period to form an equilibrium mixture consisting of 67% dimeric formaldehyde conjugate of daunorubicin and 32% of an intermediate. Because of the complexity of the spectrum, a structure could not be assigned to the intermediate; however, the intermediate appeared to have an oxazolidine ring. Upon addition of 3 equiv of hydrochloric acid in 130 μL of deuterium oxide, hydrolysis to daunorubicin-HCl was complete. The hydrochloric acid solution was prepared by the addition of 10 μL of concentrated HCl to 990 μL of D2O. The formaldehyde released from the dimeric formaldehyde conjugate of daunorubicin was detected as its hydrate. The final product was identified as daunorubicin by comparison of the NMR spectrum with that of a sample of daunorubicin plus 3 equiv of HCl. Further, the final product was isolated by removal of all volatile components under vacuum (0.1 Torr), and its ^1H NMR spectrum was identical to that of daunorubicin-HCl.
Amorphous dimeric formaldehyde conjugate of daunorubicin, when worked up in methylene chloride, was stable in DMSO for at least 4 days. It hydrolyzed with added D2O and hydrochloric acid in a manner similar to that of the crystalline material. When worked up in chloroform, amorphous dimeric formaldehyde conjugate of daunorubicin had less stability in DMSO, presumably due to traces of HCl from the chloroform.
A 1.3 mg sample of N-acetyl-3′-N,4′-O-methylenedaunorubicin was dissolved in […] of DMSO and analyzed over time by HPLC. […] At this time, […] of water was added to the DMSO/N-acetyl monomeric formaldehyde conjugate of daunorubicin solution, establishing a 50:50 DMSO:water mixture (v/v). In this solution, the N-acetyl-3′-N,4′-O-methylenedaunorubicin remained 91% intact (9% degradation to daunorubicin) over a period of 6 days, based upon the HPLC analysis.
A pH 6 triethyl ammonium acetate solution containing 13.1 μmol of epidoxorubicin-HCl and 6.6 mmol of […] was allowed to react in the dark at 25° C. for 30 min. The mixture was then extracted with chloroform with vigorous stirring for 20 min. The chloroform solution was dried over sodium sulfate and the chloroform removed by rotary evaporation. The resulting dry solid was redissolved in 1.0 mL of chloroform. To this was added 10 mL of n-hexane. After 2 days, a large amount of precipitate had formed, which was washed with 3×5 mL of n-hexane, followed by 4×1 mL of water.
The sample was maintained at ambient temperature for 2 h; after this period no change in the spectrum was observed. […] A stock 122 mM solution of HCl in D2O was prepared by adding concentrated hydrochloric acid to D2O. […] Complete hydrolysis occurred upon addition of ca. 2-3 equiv of HCl. A similar experiment was performed using HCl in H2O. […] This solution was incubated at 37° C. for 24 h prior to NMR analysis.

[2] = system: MCF-7/ADR cells; assay: In vitro cytotoxicity, colony formation by crystal violet assay, MCF-7/ADR; conditions: for fold higher cytotoxicity against MCF-7/ADR cells relative to the parent drug: relative to the respective parent drug
Experimental: The term IC50 as used herein refers to the concentration of drug which inhibits cell growth by 50%, i.e., 50% of cells are viable at the IC50 concentration relative to a no-drug control.
Cells were incubated with drug for 3 h in RPMI (Roswell Park Memorial Institute) 1640 media containing 10% fetal bovine serum and 1% DMSO. Plates, were developed using the crystal violet assay. […] In all cases percent survival was determined by the extent of colony formation six days after drug treatment.
All tissue culture materials were obtained from Gibco Life Technologies (Grand Island, N.Y.) unless otherwise stated. MCF-7 breast cancer cells were obtained from American Type Culture Collection (Rockville, Md.). […] Both cell lines were maintained in vitro by serial culture in phenol red-free RPMI Media 1640 supplemented with 10% fetal bovine serum (Gemini Bio-Products, Calbasas, Calif.), L-glutamine (2 mM), HEPES buffer (10 mM), penicillin (100 units/mL), and streptomycin (100 μg/mL). […] Cells were maintained at 37° C. in a humidified atmosphere of 5% CO2 and 95% air.
Cells were dissociated with trypsin-EDTA, counted, and suspended in growth media to a concentration of 5×10^3 cells/mL. Cell suspensions were dispensed in 200 μL aliquots into 96-well tissue culture plates. Plates were then incubated for 24 h at 37° C. in a humidified atmosphere of 5% CO2 and 95% air. The media was replaced with 180 μL of growth media prior to addition of the cytotoxic agents.
Concentrations were then corrected by measuring the solution absorbance at 480 nm (ε=11,500/mole anthracycline). The solutions were then serially diluted in DMSO to give a series of 100× working concentration solutions. For each concentration, the 100× solution was diluted 1:10 in serum-free RPMI Media 1640. 20 μL of the resulting […] solution was immediately added to the appropriate lane. Additionally, one lane was treated with 20 μL of 10% DMSO in serum-free RPMI (no drug) and one lane replaced with 200 μL of 1.5 M Tris buffer (no cells). The cells were incubated at 37° C. for 3 h. The drug solutions were removed and 200 μL of fresh growth media was added to each well.
The extent of colony formation was determined by use of a crystal violet staining assay (Gilles, R. J. et al. (1986), “Determination of cell number in monolayer cultures,” Anal. Biochem. 159:109-113; Reile, H. et al. (1990), “Computerized determination of growth kinetic curves and doubling times from cells in microcultures,” Anal. Biochem. 187:262-267). […] The cells were then stained with 75 μL of 0.1% crystal violet in deionized water for 30 min. […] The plates were blotted dry and 200 μL of 70% ethanol in water was added to each well to solublize the dye. The plates were stored at 4° C. until solubilization was complete (about 4 h). The optical density of each well was measured on an ELISA plate reader at 588 nm. Relative colony sizes were determined by comparison of the drug treated lanes to the control lanes.
MCF-7 breast cancer cells were obtained from American Type Culture Collection (Rockville, Md.). MCF-7/ADR adriamycin resistant breast cancer cells were a gift of Dr. William W. Wells (Michigan State University). Both cell lines were maintained in vitro by serial culture in phenol red-free RPMI Media 1640 supplemented with 10% fetal bovine serum (Gemini Bio-Products, Calbasas, Calif.), L-glutamine (2 mM), HEPES buffer ([…]), penicillin (100 units/mL), and streptomycin (100 μg/mL). […] Cells were maintained at 37° C. in a humidified atmosphere of 5% CO2 and 95% air.
These were then diluted 10× with autoclaved Millipore water.

In the case of `COc1cccc2c1C(=O)c1c(O)c3c(c(O)c1C2=O)CC(O)(C(=O)CO)CC3OC1CC2C(OCN3CN2COC2C(C)OC(OC4C[C@](O)(C(=O)CO)Cc5c(O)c6c(c(O)c54)C(=O)c4c(OC)cccc4C6=O)CC23)C(C)O1` (stereo partly drawn) [EPIF], the “time stable in DMSO” value ([1]; dry DMSO / DMSO-d6, 1H NMR) is reported as “at least 4 days”, the “IC50 fold higher than a fresh solution” value ([2]; MCF-7/ADR, after 20 h in 90% H2O/10% DMSO at 37° C. or 20 h in DMSO at ambient temperature) is reported as 5 fold and the “fold more toxic to resistant cells with respect to epidoxorubicin, conjugate in equilibrium with its hydrolysis products” value ([2]; MCF-7/ADR, hydrolysed equilibrium mixture) is reported as “greater than 25 fold”. The “fold higher cytotoxicity against MCF-7/ADR cells relative to the parent drug” value [2] was “greater than 120 fold”.

With `COc1cccc2c1C(=O)c1c(O)c3c(c(O)c1C2=O)C[C@@](O)(C(C)=O)C[C@@H]3O[C@H]1C[C@H]2[C@H](OCN2CN2CO[C@@H]3[C@H](C)O[C@@H](O[C@H]4C[C@](O)(C(C)=O)Cc5c(O)c6c(c(O)c54)C(=O)c4c(OC)cccc4C6=O)C[C@@H]32)[C@H](C)O1` [DAUNF, bis(3′-N-(3′-N,4′-O-methylenedaunorubicinyl))methane] the “share of conjugate in the equilibrium mixture” value ([1]; 25 μL D2O added to 500 μL DMSO-d6, over 24 h, NMR) was 67%, the “time stable in DMSO” value ([1]; crystalline material in DMSO-d6 stored over molecular sieves, 1H NMR) was “at least 14 h” and the “time stable in DMSO” value ([1]; dry DMSO / DMSO-d6, 1H NMR) was “at least 4 days”. For the same compound, the IC50 ([2]; read-out: IC50 Values, MCF-7-ADR, 3 h drug incubation in RPMI 1640, 10% fetal bovine serum, 1% DMSO, colony formation six days after treatment, fresh drug solution) was 5 nM and the “fold higher cytotoxicity against MCF-7/ADR cells relative to the parent drug” value [2] was 200 fold.
